# Source: publication PMC9737391, “Trifluoromethylcinnamanilide Michael Acceptors for Treatment of Resistant Bacterial Infections” (International Journal of Molecular Sciences, 2022)
# “And” between values parts separate entries of the source, which are not always exact repeats. Equal values may be shown once.
# Columns and labels:
# [1] = tested on: vancomycin-resistant E. faecalis VRE 368 (VRE2); assay: MIC, microtitration broth method; format: cell-based, Enterococcus faecalis
# [2] = tested on: methicillin-resistant S. aureus 63718 (MRSA3); assay: MIC, microtitration broth method; format: cell-based; settings: Staphylococcus aureus; MRSA 63718
# [3] = tested on: human monocytic leukemia cell line THP-1; assay: In vitro cell viability (cytotoxicity screening); format: cell-based; settings: 24 h, medium with 10% FBS, ± SD, n = 6
# Description: The investigated anilides can be divided into three groups. […] Higher concentrations (than 10 or 30 µM) were not possible to evaluate due to precipitation of the tested compounds in water medium. Based on all these observations, it can be concluded that the high antimicrobial activity of 3,5-CF3-substituted compounds is associated with significant cytotoxic effect against eukaryotic cells. On the other hand, the other still effective compounds, especially agents 1j and 1o, have an insignificant toxic effect, which makes them interesting for further study.
# Human monocytic leukemia THP-1 cells obtained from the European Collection of Cell Cultures (ECACC, Salisbury, UK) were used for in vitro antiproliferative assays. A recently described procedure was used.
# [4] = Lipophilicity determination by RP-HPLC; format: physicochemical; settings: RP-HPLC, logarithm of capacity factor k
# Description: It is evident from the graphs in Figure 1 that the correlation coefficients of the dependences of log k/log D6.5/log D7.4 have a value of r = 0.999 (n = 32), which means that the investigated compounds behave insignificantly differently in aqueous media with different pH. Moreover, lipophilicity was calculated as log P and Clog P using two prediction programs. […] Therefore, only log P values predicted by ACD/Percepta can be used for correlations with experimental values. These matches are shown in the graphs in Figure 2, and according to the correlation coefficient r~0.940 (n = 32), it can be argued that even the predicted lipophilicity values correlate with the experimentally measured ones. However, the largest variations were observed (no difference for series 1, 2) for compounds substituted with 2-Cl, 2-CF3, 2,5-Cl, 4-F, 4-CF3, and 3,5-F, 3,5-Cl. These are mainly substituents capable of forming hydrogen and other types of non-bonding interactions both with the surrounding environment and within the molecule. Overall, series 1 (3-CF3) is less lipophilic than series 2 (4-CF3), but the differences in the experimental data are insignificant. Unsubstituted derivatives 1a/2a are the least lipophilic compounds, while derivatives 1o/2o (3,5-Cl) and 1p/2p (3,5-CF3) are the most lipophilic compounds.
# Experimental determination of lipophilicity values (log k, log D6.5, and log D7.4) was performed under the same conditions and on the same device as described by Strharsky et al..
# [5] = tested on: methicillin-resistant S. aureus 63718 (MRSA3); assay: MBC, agar aliquot subculture method; format: cell-based; settings: Staphylococcus aureus; MRSA 63718
# E. faecalis/VRE = assay: Anti-enterococcal activity, summary over strains; format: cell-based, Enterococcus faecalis
# [6] = tested on: Enterococcus faecalis ATCC 29212; assay: MBC, agar aliquot subculture method; format: cell-based; settings: ATCC29212, E. faecalis reference strain
# [7] = tested on: methicillin-resistant S. aureus SA 3202 (MRSA1); assay: MIC, microtitration broth method; format: cell-based; settings: Staphylococcus aureus; MRSA SA 3202
# [8] = tested on: methicillin-resistant S. aureus SA 630 (MRSA2); assay: MIC, microtitration broth method; format: cell-based; settings: Staphylococcus aureus; MRSA SA 630
# [9] = tested on: Staphylococcus aureus ATCC 29213; assay: MIC, microtitration broth method; format: cell-based; settings: ATCC29213, S. aureus ATCC 29213
# M. smegmatis ATCC 700084 = assay: In vitro antimycobacterial evaluation (MIC); format: cell-based, Mycobacterium smegmatis; settings: Mycolicibacterium smegmatis, ATCC700084
# [10] = tested on: M. smegmatis and M. marinum; assay: Antimycobacterial activity, summary over both strains; format: cell-based; settings: average over the named compounds and strains; read-out: average MIC against M. smegmatis and M. marinum
# [11] = tested on: vancomycin-resistant E. faecalis VRE 342B (VRE1); assay: MIC, microtitration broth method; format: cell-based, Enterococcus faecalis
# [12] = tested on: vancomycin-resistant E. faecalis VRE 725B (VRE3); assay: MBC, agar aliquot subculture method; format: cell-based, Enterococcus faecalis
# S. aureus ATCC 29213 = assay: MTT assay, inhibition of bacterial respiration; format: cell-based, Staphylococcus aureus
# Description: The MTT assay can be used to assess cell growth by measuring respiration. Respiratory activity of bacterial cells (which is finally reflected in their viability) less than 70% after exposure to the MIC values for each tested compound is considered as a positive result of this assay. This low level of cell oxidative metabolism indicates inhibition of cell growth by inhibition of respiration. The lowest multiples of MIC values that achieved more than 70% inhibition of S. aureus ATCC 29213 viability (%) are shown in Table 3.
# The percent inhibition of respiration of S. aureus ATCC 29213 was determined through the MTT assay. The assay was performed as described recently. The percent viability is calculated through the comparison of a measured value and that of the uninhibited control: % viability = OD570E/OD570P × 100, where OD570E is the reading from the compound-exposed cells, while OD570P is the reading from the uninhibited cells (positive control). Cytotoxic potential is determined by a percent viability of <70% [46, 47].
# [13] = tested on: methicillin-resistant S. aureus SA 3202 (MRSA1); assay: MBC, agar aliquot subculture method; format: cell-based; settings: Staphylococcus aureus; MRSA SA 3202
# S. aureus/MRSA [14] = assay: Antistaphylococcal activity, summary over strains; format: cell-based, Staphylococcus aureus
# [15] = tested on: methicillin-resistant S. aureus SA 630 (MRSA2); assay: MBC, agar aliquot subculture method; format: cell-based; settings: Staphylococcus aureus; MRSA SA 630
# [16] = tested on: vancomycin-resistant E. faecalis VRE 725B (VRE3); assay: MIC, microtitration broth method; format: cell-based, Enterococcus faecalis
# [17] = tested on: Staphylococcus aureus ATCC 29213; assay: MBC, agar aliquot subculture method; format: cell-based; settings: ATCC29213, S. aureus ATCC 29213
# [18] = tested on: vancomycin-resistant E. faecalis VRE 368 (VRE2); assay: MBC, agar aliquot subculture method; format: cell-based, Enterococcus faecalis
# [19] = tested on: vancomycin-resistant E. faecalis VRE 342B (VRE1); assay: MBC, agar aliquot subculture method; format: cell-based, Enterococcus faecalis
# [20] = tested on: Enterococcus faecalis ATCC 29212; assay: MIC, microtitration broth method; format: cell-based; settings: ATCC29212, E. faecalis reference strain
# [21] = tested on: Mycobacterium marinum CAMP 5644; assay: In vitro antimycobacterial evaluation (MIC); format: cell-based
# M. tuberculosis H37Ra = tested on: M. tuberculosis H37Ra; set-up: method as in ref 26 = [26]; PMID 30087309; doi:10.3390/ijms19082318; 26. Pospisilova S. Kos J. Michnova H. Kapustikova I. Strharsky T. Oravec M. Moricz A.M. Bakonyi J. Kauerova T. Kollar P. Synthesis and spectrum of biological activities of novel N -arylcinnamamides In; settings: average over the named compounds; cited from earlier work
# M. tuberculosis = tested on: M. tuberculosis; set-up: method as in ref 26 = [26]; PMID 30087309; doi:10.3390/ijms19082318; 26. Pospisilova S. Kos J. Michnova H. Kapustikova I. Strharsky T. Oravec M. Moricz A.M. Bakonyi J. Kauerova T. Kollar P. Synthesis and spectrum of biological activities of novel N -arylcinnamamides In; settings: MTT, at MIC values; cited from earlier work
# S. aureus/MRSA [22] = tested on: S. aureus/MRSA; set-up: method as in ref 26, 51 = [26]; PMID 30087309; doi:10.3390/ijms19082318; 26. Pospisilova S. Kos J. Michnova H. Kapustikova I. Strharsky T. Oravec M. Moricz A.M. Bakonyi J. Kauerova T. Kollar P. Synthesis and spectrum of biological activities of novel N -arylcinnamamides In || [51]; 51. Pospisilova S. Kos J. Michnova H. Strharsky T. Cizek A. Jampilek J. N -Arylcinnamamides as antistaphylococcal agents Proceedings of the 4th International Electronic Conference on Medicinal Chemist; settings: cited from earlier work
# MRSA = tested on: MRSA; set-up: method as in ref 26, 51 = [26]; PMID 30087309; doi:10.3390/ijms19082318; 26. Pospisilova S. Kos J. Michnova H. Kapustikova I. Strharsky T. Oravec M. Moricz A.M. Bakonyi J. Kauerova T. Kollar P. Synthesis and spectrum of biological activities of novel N -arylcinnamamides In || [51]; 51. Pospisilova S. Kos J. Michnova H. Strharsky T. Cizek A. Jampilek J. N -Arylcinnamamides as antistaphylococcal agents Proceedings of the 4th International Electronic Conference on Medicinal Chemist; settings: against MRSA; cited from earlier work
# staphylococcal biofilm = tested on: staphylococcal biofilm; set-up: method as in ref 26, 51 = [26]; PMID 30087309; doi:10.3390/ijms19082318; 26. Pospisilova S. Kos J. Michnova H. Kapustikova I. Strharsky T. Oravec M. Moricz A.M. Bakonyi J. Kauerova T. Kollar P. Synthesis and spectrum of biological activities of novel N -arylcinnamamides In || [51]; 51. Pospisilova S. Kos J. Michnova H. Strharsky T. Cizek A. Jampilek J. N -Arylcinnamamides as antistaphylococcal agents Proceedings of the 4th International Electronic Conference on Medicinal Chemist; settings: cited from earlier work
smiles,measurement,setting,value
"O=C(/C=C/c1cccc(C(F)(F)F)c1)Nc1ccc(C(F)(F)F)cc1 [1j, (2E)-3-[3-(Trifluoromethyl)phenyl]-N-[4-(trifluoromethyl)phenyl]prop-2-enamide]",MIC,[1],44.5 µM
same,MIC,[2],2.78 µM
same,IC50,[3],> 30 µM
same,log k,[4],0.9247
same,MBC,[5],5.57 µM
same,MIC,"E. faecalis/VRE; Enterococcus faecalis, VRE, average over the named compounds and strains, read-out: average MIC against E. faecalis/VRE",~15 µM
same,anti-enterococcal MICs/MBCs,E. faecalis/VRE; range over E. faecalis and VRE isolates and over the named compounds,2.34 to 44.5 µM
same,MBC,[6],22.3 µM
same,MIC,[7],2.78 µM
same,MIC,[8],1.39 µM
same,MIC,[9],2.78 µM
same,MIC,M. smegmatis ATCC 700084,11.1 µM
same,MIC,[10],~4.1 µM
same,MIC,[11],22.3 µM
same,MBC,[12],22.3 µM
same,Conc.: lowest multiple of MIC with at least 70% inhibition of respiratory activity,S. aureus ATCC 29213,0.5× MIC (0.5× MBC)
same,Conc.: the same concentration as multiple of MBC,S. aureus ATCC 29213,0.5× MIC (0.5× MBC)
same,MBC,[13],2.78 µM
same,MIC,"S. aureus/MRSA [14]; Staphylococcus aureus, MRSA, average over the named compounds and strains, read-out: average MIC against S. aureus/MRSA",~1.4 µM
same,antistaphylococcal MICs/MBCs,S. aureus/MRSA [14]; range over S. aureus and MRSA isolates and over the named compounds,0.15 to 5.57 µM and 0.146 to 5.57 µM
same,MBC,[15],1.39 µM
same,MIC,[16],22.3 µM
same,melting point,,118 to 120 °C
same,MBC,[17],2.78 µM
same,MBC,[18],44.5 µM
same,MBC,[19],22.3 µM
same,MIC,[20],22.3 µM
same,MIC MM,[21]; M. marinum CAMP 5644,0.348 – µM
same,MIC,"[21]; Mycobacterium marinum, CAMP5644, M. marinum CAMP 5644",0.29 to 22.2 µM
O=C(/C=C/c1ccccc1)Nc1cc(C(F)(F)F)cc(C(F)(F)F)c1 [3b],average MIC against M. tuberculosis H37Ra,M. tuberculosis H37Ra,~ 24 µM
same,inhibition of M. tuberculosis respiration,M. tuberculosis,77%
same,bactericidal effect,S. aureus/MRSA [22],bactericidal effect in concentrations close to MICs
same,effect in combination with ciprofloxacin,MRSA,synergistic effect
same,effect in combination with tetracycline,MRSA,synergistic effect
same,effect in combination with vancomycin,MRSA,additivity
same,effect on staphylococcal biofilm,staphylococcal biofilm,ability to inhibit the growth of staphylococcal biofilm and disrupted mature biofilm in concentrations close to MICs
